Test results published in the NIST ThermoML archive (doi:10.1016/j.jct.2014.02.016).

Columns and labels:
[1] = refractive index (other wavelength) (dimensionless); xn = mol fraction of the nth substance listed; conditions: 100 kPa, Liquid, Wavelength=632.8 nm, Angle minimization by sell rotation
[2] = heat capacity at constant pressure per volume; xn = mol fraction of the nth substance listed; conditions: 100 kPa, Liquid, DSC Calorimetry, x1 = 0.284

CCCCCCCCCCC [undecane] + COC(=O)OC
[1]
Conditions | refractive index
283.01 K, x1 = 0.087 | 1.3791
283.01 K, x1 = 0.62 | 1.4074
284.23 K, x1 = 0.094 | 1.3791
284.23 K, x1 = 0.602 | 1.4062
285.47 K, x1 = 0.102 | 1.3791
285.47 K, x1 = 0.58 | 1.4048
286.63 K, x1 = 0.11 | 1.3791
286.63 K, x1 = 0.56 | 1.4035
287.73 K, x1 = 0.118 | 1.3792
287.73 K, x1 = 0.539 | 1.4022
288.79 K, x1 = 0.129 | 1.3795
288.79 K, x1 = 0.515 | 1.4008
289.51 K, x1 = 0.137 | 1.3797
289.51 K, x1 = 0.496 | 1.3997
290.19 K, x1 = 0.147 | 1.3801
290.19 K, x1 = 0.475 | 1.3985
290.77 K, x1 = 0.157 | 1.3805
290.77 K, x1 = 0.46 | 1.3976
291.19 K, x1 = 0.165 | 1.3809
291.19 K, x1 = 0.442 | 1.3966
291.49 K, x1 = 0.173 | 1.3813
291.49 K, x1 = 0.431 | 1.396
291.71 K, x1 = 0.179 | 1.3816
291.71 K, x1 = 0.418 | 1.3953
291.9 K, x1 = 0.186 | 1.382
291.9 K, x1 = 0.409 | 1.3948
292.05 K, x1 = 0.193 | 1.3824
292.05 K, x1 = 0.398 | 1.3942
292.17 K, x1 = 0.198 | 1.3827
292.17 K, x1 = 0.391 | 1.3938
292.25 K, x1 = 0.202 | 1.3829
292.25 K, x1 = 0.383 | 1.3934
292.33 K, x1 = 0.207 | 1.3832
292.33 K, x1 = 0.376 | 1.393
292.39 K, x1 = 0.212 | 1.3835
292.39 K, x1 = 0.371 | 1.3927
292.44 K, x1 = 0.217 | 1.3838
292.44 K, x1 = 0.365 | 1.3924
292.49 K, x1 = 0.22 | 1.384
292.49 K, x1 = 0.36 | 1.3921
292.52 K, x1 = 0.225 | 1.3843
292.52 K, x1 = 0.352 | 1.3917
292.56 K, x1 = 0.228 | 1.3845
292.56 K, x1 = 0.349 | 1.3915
292.59 K, x1 = 0.235 | 1.3849
292.59 K, x1 = 0.341 | 1.3911
292.62 K, x1 = 0.238 | 1.3851
292.62 K, x1 = 0.336 | 1.3908
292.64 K, x1 = 0.243 | 1.3854
292.64 K, x1 = 0.331 | 1.3905
292.65 K, x1 = 0.246 | 1.3856
292.65 K, x1 = 0.327 | 1.3903
292.66 K, x1 = 0.251 | 1.3859
292.66 K, x1 = 0.322 | 1.39
292.67 K, x1 = 0.255 | 1.3861
292.67 K, x1 = 0.258 | 1.3863
292.67 K, x1 = 0.314 | 1.3896
292.67 K, x1 = 0.318 | 1.3898
292.68 K, x1 = 0.261 | 1.3865
292.68 K, x1 = 0.263 | 1.3866
292.68 K, x1 = 0.266 | 1.3868
292.68 K, x1 = 0.304 | 1.389
292.68 K, x1 = 0.307 | 1.3892
292.68 K, x1 = 0.311 | 1.3894
303.3 K, x1 = 0.102 | 1.3708
303.3 K, x1 = 0.2 | 1.3776
303.3 K, x1 = 0.299 | 1.3835
303.3 K, x1 = 0.388 | 1.3891
303.3 K, x1 = 0.5 | 1.3932
303.3 K, x1 = 0.586 | 1.3967
303.3 K, x1 = 0.701 | 1.4014
303.3 K, x1 = 0.793 | 1.4041
303.3 K, x1 = 0.905 | 1.4085

[2]
Conditions | heat capacity [J/K/m3]
293.3 K | 2050000
293.4 K | 2009000
293.5 K | 1982000
293.6 K | 1953000
293.8 K | 1939000
294 K | 1925000
294.5 K | 1897000
296 K | 1878000
297 K | 1848000
298 K | 1846000
299 K | 1832000
300 K | 1824000
301 K | 1822000
302 K | 1818000
303 K | 1818000
304 K | 1814000
305 K | 1810000
306 K | 1806000
307 K | 1805000
308 K | 1803000
309 K | 1801000
310 K | 1800000
311 K | 1797000
312 K | 1796000
313 K | 1795000
314 K | 1793000
315 K | 1792000
316 K | 1790000
317 K | 1789000
318 K | 1788000
319 K | 1787000
320.01 K | 1787000
321 K | 1786000
322 K | 1785000
323 K | 1784000
324.01 K | 1783000
325 K | 1782000
326 K | 1782000
327 K | 1780000
328.01 K | 1780000
329 K | 1780000
330 K | 1779000
331 K | 1778000
332 K | 1778000
333 K | 1777000
